Data taken from patent US6080871A, “Sulfonamides and sulfamides as H3 receptor antagonists” (James Black Foundation Limited, priority 1996, dated 2000).

What follows are molecules tested against T1, Histamine H3 (Cavia porcellus, UniProt Q9JI35) (assay: Histamine H3 radioligand binding assay, [3H]-R-α-methylhistamine, guinea pig ileum longitudinal muscle myenteric plexus membranes). Conditions: not given.
T1 construct: ileum longitudinal muscle myenteric plexus membranes; from tissue; host or cells: ileum longitudinal muscle myenteric plexus membranes of male Dunkin Hartley guinea pigs
Method: Histamine H3 Radioligand Binding Assay
Male Dunkin Hartley guinea pigs (200-300 g) were used. The small intestine was rapidly removed (cut ~5 cm from caecum and 5 cm from stomach) and placed in ice-cold 20 mM Hepes-NaOH buffer (pH7.4 at 21±3° C.). The tissue was cut into ~10 cm segments, flushed through with ice-cold 20 mM Hepes-NaOH buffer and placed in a beaker containing fresh buffer at 4° C. 10 cm segments of ileum were threaded onto a glass pipette and the longitudinal muscle myenteric plexus was peeled away from the circular muscle using damp cotton-wool. Longitudinal muscle myenteric plexus was immediately placed in ice-cold Viaspan® solution (~100 ml for tissue from 3 guinea pigs) and placed in the refrigerator for 24 hours.
Pre-soaked tissue was weighed and minced with scissors. The tissue was then homogenised in Viaspan® using a polytron (Kinematica AG; PT-DA 3020/2TS, 3×~1-2 s). 50 ml of 500 mM Tris HCl (pH6.9 at 21±3° C.) was added to the tissue and the mixture centrifuged at 39,800×g for 12 min at 4° C. The supernatant was discarded and rehomogenised in 100 ml ice-cold 20 mM Hepes-NaOH buffer (pH7.4 at 21±3° C.) using a teflon-in-glass homogeniser (setting 10; 3×). The homogenate was recentrifuged at 39,800×g and the pellet resuspended in 20 mM Hepes-NaOH buffer (pH7.4 at 21±3° C.), to a tissue concentration of 50 mg.ml^-1, using a polytron (Brinkman, PT10, 3×~1 s).
Guinea pig ileum longitudinal muscle myenteric plexus membranes (400 μl) were incubated for 165 min at 21±3° C. in a final volume of 500 μl with 20 mM Hepes-NaOH buffer containing [^3 H]-R-α-methylhistamine (50 μl; 3 nM) and competing compound. Total and non-specific binding of [^3 H]-R-α-methylhistamine were defined using 50 μl of buffer and 50 μl of 10 μM thioperamide, respectively. The assay was terminated by rapid filtration through Whatman GF/B filters, presoaked (2 hr) in 0. 1% polyethyleneimine,using a Brandell Cell Harvester. The filters were washed (3×3 ml) with ice-cold 50 mM Tris-HCl (pH6.9 at 21±3° C.), transferred into scintillation vials, 5 ml liquid scintillation cocktail was added and after 4 hours the bound radioactivity was determined by counting (4 min) in a Beckman liquid scintillation counter.
Data are analysed using GraphPad prism and the general equation for a competition curve with variable Hill slope (nH).
Y=Non-specific binding+(Total binding-Non-specific binding)/1+10^((logIC.sbsp.50^-X).n.sbsp.H^)
X is the log concentration of competing compound, Y is the binding obtained at each concentration of X, pIC50 is the concentration of the competitor required to compete for half of the specific binding.
The IC50 is converted to the K1 using the Cheng Prusoff equation, […]
IC50 is the concentration of competitor required to compete for half the specific binding, L is the radioligand concentration used, KD is the equilibrium dissociation constant for the radioligand determined by saturation experiments.
(§1) Typical variance in the functional assay is ±0.15 log units. Typical variance in the binding assay is ±0.12 log units. This means that if the discrepancy between the two assays is greater than about 0.5 log units, then this difference on average is significant.

T1 sequence (Q9JI35 whole entry): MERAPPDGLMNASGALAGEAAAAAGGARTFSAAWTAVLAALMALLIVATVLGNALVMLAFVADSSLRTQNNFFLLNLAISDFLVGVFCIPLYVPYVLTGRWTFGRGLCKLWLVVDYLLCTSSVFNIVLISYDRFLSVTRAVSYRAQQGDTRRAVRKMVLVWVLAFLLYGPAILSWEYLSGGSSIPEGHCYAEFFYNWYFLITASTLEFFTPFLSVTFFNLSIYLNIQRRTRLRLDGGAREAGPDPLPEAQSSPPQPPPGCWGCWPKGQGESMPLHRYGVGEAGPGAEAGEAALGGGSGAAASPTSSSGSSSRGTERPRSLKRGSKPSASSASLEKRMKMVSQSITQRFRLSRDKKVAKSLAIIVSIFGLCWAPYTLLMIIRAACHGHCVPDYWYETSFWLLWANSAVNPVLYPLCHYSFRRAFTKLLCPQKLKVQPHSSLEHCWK

Row | SMILES | Ki [nM]
1 | O=S(=O)(Cc1ccc(Br)cc1)NCCCCc1c[nH]cn1 [Example 77, N-[4-(4(5)-Imidazoyl)butyl]-(4-bromophenyl)methanesulfonamide] | 3.09

Same assay, conditions: 3 nM [3H]-R-α-methylhistamine, 165 min, 21±3° C., Cheng Prusoff; variance ±0.12 log units

Row | SMILES | pK1 (binding assay)
2 | O=S(=O)(NCCc1c[nH]cn1)c1ccc2ccccc2c1 [Example 1, N-[2-(4(5)-Imidazoyl)ethyl]-2-naphthalenesulfonamide] | 7.77
3 | O=S(=O)(NCCCCCc1c[nH]cn1)c1ccc2ccccc2c1 [Example 6, N-[5-(4(5)-Imidazoyl)pentyl]-2-naphthalenesulfonamide] | 7.50
4 | O=S(=O)(NCCCCc1c[nH]cn1)c1ccc2ccccc2c1 [Example 7, N-[4-(4(5)-Imidazoyl)butyl]-2-naphthalenesulfonamide] | 7.42
5 | O=S(=O)(NCCCCCCc1c[nH]cn1)c1ccc2ccccc2c1 [Example 8] | 7.49
6 | O=S(=O)(Cc1ccc(Cl)cc1)NCCCCCc1c[nH]cn1 [Example 9, N-[5-(4(5)-Imidazoyl)pentyl]-(4-chlorophenyl)methanesulfonamide] | 7.94
7 | O=S(=O)(Cc1ccc(F)cc1)NCCCCc1c[nH]cn1 [Example 79, N-[4-(4(5)-Imidazoyl)butyl]-(4-fluoromethylphenyl)methanesulfonamide] | 8.13

Next, values leading:

Row | pK1 (binding assay) | SMILES
8 | 7.23 | O=S(=O)(Cc1ccc(Cl)cc1)NCCCCCCCCCCc1c[nH]cn1 [Example 34, N-[10-(4(5)-Imidazoyl)decyl]-(4-chlorophenyl)methanesulfonamide]
9 | 6.02 | O=S(=O)(NCCCCCCCCCCc1c[nH]cn1)NCc1ccc(Cl)cc1 [Example 40, N-[10-(4(5)-Imidazoyl)decyl]-N'-(4-chlorophenyl)methyl-sulfamide]

Same assay, conditions: 3 nM [3H]-R-α-methylhistamine, 165 min, 21±3° C., Cheng Prusoff; variance ±0.12 log units; read-out: pK1 (binding assay) (converted)

Row | Ki [nM] | SMILES
10 | 200 | O=S(=O)(NCCCCc1c[nH]cn1)NCC12CC3CC(CC(C3)C1)C2 [Example 52, N-[4-(4(5)-Imidazoyl)butyl]-N'-adamant-1-ylmethyl-sulfamide]
11 | 3.55 | O=S(=O)(Cc1ccc(C(F)(F)F)cc1)NCCCCc1c[nH]cn1 [Example 78, N-[4-(4(5)-Imidazoyl)butyl]-(4-trifluoromethylphenyl)methanesulfonamide]
12 | 174 | C[C@@H](NS(=O)(=O)NCCCCc1c[nH]cn1)c1ccccc1 [Example 80, N-[4-(4(5)-Imidazoyl)butyl]-N'-(1R-phenylethyl)-sulfamide]
13 | 145 | C[C@H](NS(=O)(=O)NCCCCc1c[nH]cn1)c1ccccc1 [Example 81, N-[4-(4(5)-Imidazoyl)butyl]-N'-(1S-phenylethyl)-sulfamide]
14 | 27.5 | O=S(=O)(NCCCCCc1c[nH]cn1)NCc1ccc(-c2ccccc2)cc1 [Example 82, N-[5-(4(5)-Imidazoyl)pentyl]-N'-(4-biphenyl)methyl-sulfamide]

These molecules were tested against T2, H3 receptor (Cavia porcellus, UniProt Q9JI35) (assay: H3 receptor bioassay (functional assay), guinea pig ileal longitudinal muscle myenteric plexus). Conditions: antagonism of R-(α)-methylhistamine E/[A] curve, Schild's methods; electrically stimulated guinea pig ileum; variance ±0.15 log units.
T2 construct: the longitudinal muscle layer and adhering myenteric plexus was teased away; from tissue; host or cells: ileal longitudinal muscle with adhering myenteric plexus of male Dunkin-Hartley guinea pigs
Format: cell-based
Method: The biological activity of the compounds of the examples was measured using the ileal longitudinal muscle, myenteric plexus assay described by Paton and Aboo Zar (J. Physiol. 194, 13-33 (1968)). Male Dunkin-Hartley guinea pigs (250-300 g) were employed. Briefly, a 50 cm portion of ileum proximal to the caecum was removed, after discarding the terminal 20 cm. Ileal segments (3 cm) were cleaned by passing Krebs-Henseleit buffer containing 3 μM mepyramine gently through the ileum using a Pasteur pipette (size: 13.8 cm length, 0.65 cm diameter). To avoid unnecessary damage to the tissue, Krebs-Henseleit buffer was passed through the ileal segment, while it was lying horizontally on a petri dish. Therefore, the ileum was not over-distended and the buffer flowed through with ease. Each segment was then passed over a Pasteur pipette and the longitudinal muscle layer and adhering myenteric plexus was teased away using moist cotton wool, by stroking tangentially away from the mesenteric attachment. The tissues were suspended in 20 ml organ baths containing Krebs-Henseleit buffer at 37±1° C. and gassed with […]. The tissues were ligated to two parallel stainless steel wires, situated between two platinum electrodes (0.76 cm length, 0.06 cm diameter). All measurements were recorded isometrically (Grass FTO3 transducer). Following an initial loading tension of 1 g, the tissues were stimulated with electrical pulses at a frequency of 0.1 Hz and a pulse duration of 0.5msec, as described by Kosterlitz & Watt (1968). Initially, the tissues were stimulated at supramaximal (1.3 fold times maximal) voltage for a period of 30 min and then the tissues were washed and re-stimulated. A "sighter dose" of the selective histamine H3 -receptor agonist, R-(α)-methylhistamine(0.3 μM) (Arrang et al., 1987), was administered. Upon generation of response, the "sighter dose" was removed from the tissues by "washout" (6 washes over 60 min) and during this period the electrical stimulation was switched off. The tissues were then re-stimulated and allowed to stabilise prior to the addition of drug treatments, which were allocated on a randomised block basis to the organ baths. Following the incubation period, a single cumulative E/[A] curve was obtained. The experimental E/[A] curve data was expressed as the percentage inhibition of the peak height of electrically-stimulated contraction. Antagonist affinity values were calculated from the degree of rightward shift of the R-(α)-methylhistamine E/[A] curves using Schild's methods (Arunlatcshama & Schild, 1949).
as §1

T2 sequence (Q9JI35 whole entry): as above

Row | SMILES | pKB (functional assay)
15 | O=S(=O)(NCCc1c[nH]cn1)NCc1ccccc1 [Example 35, N-[2-(4(5)-Imidazoyl)ethyl]-N'-phenylmethyl-sulfamide] | 5.59

Same assay, conditions: antagonism of R-(α)-methylhistamine E/[A] curve, Schild's methods; electrically stimulated guinea pig ileum; variance ±0.15 log units; read-out: pKB (functional assay) (converted)

Row | SMILES | Kb [nM]
16 | O=S(=O)(NCCc1c[nH]cn1)c1ccc2ccccc2c1 [Example 1, N-[2-(4(5)-Imidazoyl)ethyl]-2-naphthalenesulfonamide] | 200
17 | O=S(=O)(NCCc1c[nH]cn1)c1ccccc1 [Example 2, N-[2-(4(5)-Imidazoyl)ethyl]-benzenesulfonamide] | 2400
18 | O=S(=O)(NCCc1c[nH]cn1)c1cccc2ccccc12 [Example 3, N-[2-(4(5)-Imidazoyl)ethyl]-1-naphthalenesulfonamide] | 537
19 | O=S(=O)(CCCC1CCCCC1)NCCc1c[nH]cn1 [Example 4, N-[2-(4(5)-Imidazoyl)ethyl]-3-cyclohexylpropanesulfonamide] | 398
20 | O=S(=O)(NCCCCCc1c[nH]cn1)c1ccc2ccccc2c1 [Example 6, N-[5-(4(5)-Imidazoyl)pentyl]-2-naphthalenesulfonamide] | 110
21 | O=S(=O)(NCCCCc1c[nH]cn1)c1ccc2ccccc2c1 [Example 7, N-[4-(4(5)-Imidazoyl)butyl]-2-naphthalenesulfonamide] | 155
22 | O=S(=O)(NCCCCCCc1c[nH]cn1)c1ccc2ccccc2c1 [Example 8] | 77.6
23 | O=S(=O)(Cc1ccc(Cl)cc1)NCCCCCc1c[nH]cn1 [Example 9, N-[5-(4(5)-Imidazoyl)pentyl]-(4-chlorophenyl)methanesulfonamide] | 46.8
24 | O=S(=O)(NCCc1c[nH]cn1)c1ccc(Cl)c(Cl)c1 [Example 16, N-[2-(4(5)-Imidazoyl)ethyl]-3,4-dichlorobenzenesulfonamide] | 170
25 | O=S(=O)(CCc1ccccc1)NCCc1c[nH]cn1 [Example 17, N-[2-(4(5)-Imidazoyl)ethyl]-2-phenylethanesulfonamide] | 447
26 | O=S(=O)(CCCc1ccccc1)NCCc1c[nH]cn1 [Example 18, N-[2-(4(5)-Imidazoyl)ethyl]-3-phenylpropanesulfonamide] | 162
27 | O=S(=O)(Cc1ccc(Cl)cc1)NCCCc1c[nH]cn1 [Example 26, N-[3-(4(5)-Imidazoyl)propyl]-(4-chlorophenyl)methanesulfonamide] | 513
28 | O=S(=O)(NCCCc1c[nH]cn1)c1ccccc1 [Example 27, N-[3-(4(5)-Imidazoyl)propyl]-benzenesulfonamide] | 7760
29 | O=S(=O)(NCCCc1c[nH]cn1)c1ccc2ccccc2c1 [Example 28, N-[3-(4(5)-Imidazoyl)propyl]-2-naphthalenesulfonamide] | 4070
30 | O=S(=O)(NCCCc1c[nH]cn1)NCc1ccccc1 [Example 36, N-[3-(4(5)-Imidazoyl)propyl]-N'-phenylmethyl-sulfamide] | 692
31 | O=S(=O)(NCCc1c[nH]cn1)NCc1ccc(Cl)cc1 [Example 37, N-[2-(4(5)-Imidazoyl)ethyl]-N'-(4-chlorophenyl)methyl-sulfamide] | 1950

Next, values leading:

Row | Kb [nM] | SMILES
32 | 955 | O=S(=O)(N[C@@H]1C[C@H]1c1c[nH]cn1)c1ccc2ccccc2c1 (relative stereo) [Example 72, N-[2-(4(5)-Imidazoyl)-trans-cyclopropyl]-2-naphthalenesulfonamide]
33 | 10200 | COC(=O)[C@H](Cc1c[nH]cn1)NS(=O)(=O)c1ccc2ccccc2c1 [Example 73, 3-(4(5)-Imidazoyl)-2S-(2-naphthalene)sulfonamino-propionic Acid Methyl Ester]
34 | 7.94 | O=S(=O)(Cc1ccc(-c2ccccc2)cc1)NCCCCc1c[nH]cn1 [Example 84, N-[4-(4(5)-Imidazoyl)butyl]-(4-biphenyl)methanesulfonamide]
35 | 8.91 | CN(CCCCc1c[nH]cn1)S(=O)(=O)CCc1ccc(Cl)cc1 [Example 85, N-[4-(4(5)-Imidazoyl)butyl]-N-methyl-2-(4-chlorophenyl)ethanesulfonamide]

Same assay, conditions: guinea pig; printed beside 4.99 in the line of Example 73; read-out: α (functional assay)

Row | Emax [%] | SMILES
36 | ~20 | COC(=O)[C@H](Cc1c[nH]cn1)NS(=O)(=O)c1ccc2ccccc2c1 [Example 73, 3-(4(5)-Imidazoyl)-2S-(2-naphthalene)sulfonamino-propionic Acid Methyl Ester]
